By inhibition is commonly meant the change of the read-out against control, counted positive when it falls. One may read the CC50 as the concentration that lowers cell viability or growth by half. Lower therefore signals harm at low concentration.

This is an account of results in US9873680B2 (Gilead Sciences, Inc., priority 2014, dated 2018).

Read-outs that look alike come from different tables or passages of the source.

The subject of data set [1] is HIV-IIIb. Briefly: Test A: Antiviral Assay in MT4 Cells. Type of data set: cell-based, HIV-1. As to conditions: for inhibition at 0.2 µM: 0.2 μM drug concentration; for inhibition at 2 µM: 2 μM drug concentration, read-out: Response at 2 μM (percent inhibition of virus-induced cell killing). As to the method:
Test A: Antiviral Assay in MT4 Cells
MT-4 cells were next mixed with HIV-IIIb at an m.o.i of 0.003 for 1 hour, after which time 35 μL of virus/cell mixture (2000 cells) was immediately added to each well containing 40 μL of diluted compound. The plates were then incubated at 37° C. for 5 days. After 5 days of incubation, 25 μl of 2× concentrated CellTiter-Glo™ Reagent (catalog #G7571, Promega Biosciences, Inc., Madison, Wis.) was added to each well containing MT-4 cells. Cell lysis was carried out by incubating at room temperature for 10 min and then chemiluminescence was read.

The nature of data set [2]: Test B: Cytotoxicity Assay. Type of data set: cell-based. As to conditions: human, uninfected MT-4 cells, CellTiter-Glo. As to the method:
Test B: Cytotoxicity Assay Compound cytotoxicity and the corresponding CC50 values was determined using the same protocol as described in the antiviral assay (Test A) except that uninfected cells were used.
(Cellular ATP, detected with luciferase, serves as a proxy for viable cell number.)

Setting [3] is: Human immunodeficiency virus 1, MT4, 120 h, MT-4 cells infected with HIV-IIIb, 5 days, values normalized to 100%, average over time, read-out: % inhibition at 0.2 μM (percent inhibition of virus-induced cell killing).
The mark [4] stands for this setting: Human immunodeficiency virus 1, IIIB, MT4, comparison with previously published compounds, read-out: Response at 0.2 μM (percent inhibition of virus-induced cell killing).
[5] abbreviates: Human immunodeficiency virus 1, IIIB, MT4, comparison with previously published compounds.

Take `CN(C)c1ccc(C#Cc2ccc(-c3ccc4c(c3)C(=O)NC4)c([C@H](Cc3cc(F)cc(F)c3)NC(=O)Cn3nc(C(F)(F)F)c4c3C(F)(F)[C@@H]3C[C@H]43)n2)cc1` [Compound 14, 2-((3bS,4aR)-5,5-difluoro-3-(trifluoromethyl)-3b,4,4a,5-tetrahydro-1H-cyclopropa[3,4]cyclopenta[1,2-c]pyrazol-1-yl)-N—((S)-2-(3,5-difluorophenyl)-1-(6-((4-(dimethylamino)phenyl)ethynyl)-3-(3-oxoisoindolin-5-yl)pyridin-2-yl)ethyl)acetamide]: in data set [1] (setting [3]), the inhibition at 0.2 µM was 1%. The same molecule had a CC50 at 5 days in data set [2] of over 53.2 µM.
Turning to `NC(=O)c1cc(-c2ccc(C#CC3(O)CCCC3)nc2[C@H](Cc2cc(F)cc(F)c2)NC(=O)Cn2nc(C(F)(F)F)c3c2C(F)(F)[C@@H]2C[C@H]32)ccc1F` [Compound 15B, 5-(2-((S)-1-(2-((3bS,4aR)-5,5-difluoro-3-(trifluoromethyl)-3b,4,4a,5-tetrahydro-1H-cyclopropa[3,4]cyclopenta[1,2-c]pyrazol-1-yl)acetamido)-2-(3,5-difluorophenyl)ethyl)-6-((1-hydroxycyclopentyl)ethynyl)pyridin-3-yl)-2-fluorobenzamide], the inhibition at 0.2 µM in data set [1] (setting [4]) and in data set [1] (setting [3]) was 68% in each case. In addition, the inhibition at 2 µM in data set [1] (setting [5]) was 68%. The molecule further had a CC50 at 5 days in data set [2] of 3.02 µM.
For the molecule `NC(=O)c1cc(-c2ccc(C#CC3(O)CCCCC3)nc2[C@H](Cc2cc(F)cc(F)c2)NC(=O)Cn2nc(C(F)(F)F)c3c2C(F)(F)[C@@H]2C[C@H]32)ccc1F` [Compound 16, 5-(2-((S)-1-(2-((3bS,4aR)-5,5-difluoro-3-(trifluoromethyl)-3b,4,4a,5-tetrahydro-1H-cyclopropa[3,4]cyclopenta[1,2-c]pyrazol-1-yl)acetamido)-2-(3,5-difluorophenyl)ethyl)-6-((1-hydroxycyclohexyl)ethynyl)pyridin-3-yl)-2-fluorobenzamide], the inhibition at 0.2 µM in data set [1] (setting [4]) and in data set [1] (setting [3]) was 76% in each case. The inhibition at 2 µM in data set [1] (setting [5]) came to 77%. The CC50 at 5 days in data set [2] came out at 3 µM.
In the case of `CC(O)(C#Cc1ccc(-c2ccc(F)c(C(N)=O)c2)c([C@H](Cc2cc(F)cc(F)c2)NC(=O)Cn2nc(C(F)(F)F)c3c2C(F)(F)[C@@H]2C[C@H]32)n1)c1ccccc1` (stereo partly drawn) [Compound 17, 5-(2-((S)-1-(2-((3bS,4aR)-5,5-difluoro-3-(trifluoromethyl)-3b,4,4a,5-tetrahydro-1H-cyclopropa[3,4]cyclopenta[1,2-c]pyrazol-1-yl)acetamido)-2-(3,5-difluorophenyl)ethyl)-6-(3-hydroxy-3-phenylbut-1-yn-1-yl)pyridin-3-yl)-2-fluorobenzamide], the inhibition at 0.2 µM in data set [1] (setting [4]) and in data set [1] (setting [3]) was 66% in each case. Moreover, the inhibition at 2 µM in data set [1] (setting [5]) worked out at 73%. The molecule also registered a CC50 at 5 days in data set [2] of 3.06 µM.
Regarding `Cc1cc(C#Cc2ncc(-c3ccc(F)c(C(N)=O)c3)c([C@H](Cc3cc(F)cc(F)c3)NC(=O)Cn3nc(C(F)(F)F)c4c3C(F)(F)[C@@H]3C[C@H]43)n2)ccn1` [Compound 18C, 5-(4-((S)-1-(2-((3bS,4aR)-5,5-difluoro-3-(trifluoromethyl)-3b,4,4a,5-tetrahydro-1H-cyclopropa[3,4]cyclopenta[1,2-c]pyrazol-1-yl)acetamido)-2-(3,5-difluorophenyl)ethyl)-2-((2-methylpyridin-4-yl)ethynyl)pyrimidin-5-yl)-2-fluorobenzamide], the inhibition at 0.2 µM in data set [1] (setting [4]) and in data set [1] (setting [3]) was 90% each time. Moreover, the inhibition at 2 µM in data set [1] (setting [5]) was found to be 94%. Moreover, the CC50 at 5 days in data set [2] was 2.31 µM.
As to `Cc1cncc(C#Cc2ncc(-c3ccc(F)c(C(N)=O)c3)c([C@H](Cc3cc(F)cc(F)c3)NC(=O)Cn3nc(C(F)(F)F)c4c3C(F)(F)[C@@H]3C[C@H]43)n2)c1` [Compound 19, 5-(4-((S)-1-(2-((3bS,4aR)-5,5-difluoro-3-(trifluoromethyl)-3b,4,4a,5-tetrahydro-1H-cyclopropa[3,4]cyclopenta[1,2-c]pyrazol-1-yl)acetamido)-2-(3,5-difluorophenyl)ethyl)-2-((5-methylpyridin-3-yl)ethynyl)pyrimidin-5-yl)-2-fluorobenzamide], the inhibition at 0.2 µM in data set [1] (setting [4]) and in data set [1] (setting [3]) was 83% throughout. Moreover, the inhibition at 2 µM in data set [1] (setting [5]) was found to be 88%. Besides, the CC50 at 5 days in data set [2] worked out at 4.63 µM.
For `Cn1nc(NS(C)(=O)=O)c2cccc(-c3ccc(C#CC4(O)COC4)nc3[C@H](Cc3cc(F)cc(F)c3)NC(=O)Cn3nc(C(F)(F)F)c4c3C(F)(F)[C@@H]3C[C@H]43)c21` [Compound 20E, 2-((3bS,4aR)-5,5-difluoro-3-(trifluoromethyl)-3b,4,4a,5-tetrahydro-1H-cyclopropa[3,4]cyclopenta[1,2-c]pyrazol-1-yl)-N—((S)-2-(3,5-difluorophenyl)-1-(6-((3-hydroxyoxetan-3-yl)ethynyl)-3-(1-methyl-3-(methylsulfonamido)-1H-indazol-7-yl)pyridin-2-yl)ethyl)acetamide], the inhibition at 0.2 µM in data set [1] (setting [3]) was determined as 94%. In data set [2], this molecule came in with a CC50 at 5 days of 27.7 µM.
`Cc1c(-c2ccc(C#CC3(O)COC3)nc2[C@H](Cc2cc(F)cc(F)c2)NC(=O)Cn2nc(C(F)(F)F)c3c2C(F)(F)[C@@H]2C[C@H]32)ccc2n[nH]c(=O)n12` [Compound 21, 2-((3bS,4aR)-5,5-difluoro-3-(trifluoromethyl)-3b,4,4a,5-tetrahydro-1H-cyclopropa[3,4]cyclopenta[1,2-c]pyrazol-1-yl)-N—((S)-2-(3,5-difluorophenyl)-1-(6-((3-hydroxyoxetan-3-yl)ethynyl)-3-(5-methyl-3-oxo-2,3-dihydro-[1,2,4]triazolo[4,3-a]pyridin-6-yl)pyridin-2-yl)ethyl)acetamide]: in data set [1] (setting [3]), the inhibition at 0.2 µM is 100%. In data set [2], this molecule had a CC50 at 5 days of 11.7 µM.
`Cn1nc(NS(C)(=O)=O)c2cccc(-c3ccc(C#CC4(O)CNC4)nc3[C@H](Cc3cc(F)cc(F)c3)NC(=O)Cn3nc(C(F)(F)F)c4c3C(F)(F)[C@@H]3C[C@H]43)c21` [Compound 22C, 2-((3bS,4aR)-5,5-difluoro-3-(trifluoromethyl)-3b,4,4a,5-tetrahydro-1H-cyclopropa[3,4]cyclopenta[1,2-c]pyrazol-1-yl)-N—((S)-2-(3,5-difluorophenyl)-1-(6-((3-hydroxyazetidin-3-yl)ethynyl)-3-(1-methyl-3-(methylsulfonamido)-1H-indazol-7-yl)pyridin-2-yl)ethyl)acetamide]: the inhibition at 0.2 µM in data set [1] (setting [3]) came out at 93%. The molecule also came in with a CC50 at 5 days in data set [2] of 17.7 µM.
In the same order, the values of `CN1CC(O)(C#Cc2ccc(-c3cccc4c(NS(C)(=O)=O)nn(C)c34)c([C@H](Cc3cc(F)cc(F)c3)NC(=O)Cn3nc(C(F)(F)F)c4c3C(F)(F)[C@@H]3C[C@H]43)n2)C1` [Compound 23C, 2-((3bS,4aR)-5,5-difluoro-3-(trifluoromethyl)-3b,4,4a,5-tetrahydro-1H-cyclopropa[3,4]cyclopenta[1,2-c]pyrazol-1-yl)-N—((S)-2-(3,5-difluorophenyl)-1-(6-((3-hydroxy-1-methylazetidin-3-yl)ethynyl)-3-(1-methyl-3-(methylsulfonamido)-1H-indazol-7-yl)pyridin-2-yl)ethyl)acetamide] are 100% and 9.19 µM.
